The record followed here is US20220041606A1, “POSITIVE ALLOSTERIC MODULATORS OF THE MUSCARINIC ACETYLCHOLINE RECEPTOR M1” (Vanderbilt University, priority 2020, published 2022).

The target of experiment [1] is T1, human mAChR M1 (Homo sapiens, UniProt P11229).
T1 construct: host or cells: CHO-K1 cells (ATCC), stably transfected using Lipofectamine2000
T1 sequence (P11229 1-460): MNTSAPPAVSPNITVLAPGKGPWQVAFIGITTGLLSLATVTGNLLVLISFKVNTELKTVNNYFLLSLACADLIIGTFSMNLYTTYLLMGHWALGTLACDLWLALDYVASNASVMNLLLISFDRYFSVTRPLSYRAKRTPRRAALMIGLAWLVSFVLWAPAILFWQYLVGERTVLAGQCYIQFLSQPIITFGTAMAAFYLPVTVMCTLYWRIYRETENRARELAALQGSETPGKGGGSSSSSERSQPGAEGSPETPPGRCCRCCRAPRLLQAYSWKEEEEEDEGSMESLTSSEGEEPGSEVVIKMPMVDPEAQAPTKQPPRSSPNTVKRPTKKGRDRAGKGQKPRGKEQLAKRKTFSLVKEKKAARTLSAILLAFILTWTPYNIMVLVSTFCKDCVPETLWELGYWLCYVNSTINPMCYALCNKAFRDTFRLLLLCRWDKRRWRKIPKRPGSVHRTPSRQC
The experiment in a line: mAChR M1 cell-based functional assay (calcium mobilization), PAM activity: increase in the EC20 acetylcholine response. Conditions: CHO-K1 cells expressing hM1; potentiation of EC20 acetylcholine response. Put shortly:
(§1)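 Fluorescence ratio calcium read-out (Fluo-4 AM, FDSS 6000) in human M1-expressing CHO-K1 cells. Agonist activity taken as concentration-dependent rise after compound addition; potentiation as enhancement of a subsequent EC20 acetylcholine challenge. Curves from 11-point threefold dilutions fitted by four-parameter logistic; Emax expressed versus acetylcholine maximum.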
Background: Calcium flux is commonly read through the fluorescence of an indicator in the cells.

The target of experiment [2] is T1, human mAChR M1. The experiment can be described thus: mAChR M1 cell-based functional assay (calcium mobilization), agonist activity upon compound addition. The note with it: CHO-K1 cells expressing hM1; for EC50: compound alone, before acetylcholine addition; for Emax: relative to the maximum for acetylcholine. A digest of the protocol:
as §1

Some results are limits rather than exact numbers.

Turning to `Cn1ccc(-c2ccc(Cn3cc(C(=O)N[C@H]4CCC[C@@H]4O)c4occc4c3=O)c(F)c2)n1` [Compound D8, 5-(2-Fluoro-4-(1-methyl-1H-pyrazol-3-yl)benzyl)-N-((1S,2S)-2-hydroxycyclopentyl)-4-oxo-4,5-dihydrofuro[3,2-c]pyridine-7-carboxamide], in experiment [1], the EC50 – broadly, the concentration needed to bring the measured effect to its halfway point – amounted to 5.13 µM and the maximum response (Emax) – broadly, the greatest response seen or fitted, relative to the assay's reference – worked out at 32%. Besides, in experiment [2], the EC50 was greater than 10 µM and the Emax was less than 5%.
As to `Cn1ccc(-c2ccc(Cn3cc(C(=O)N[C@H]4CCCC[C@@H]4O)c4occc4c3=O)c(F)c2)n1` [Compound D7, 5-(2-fluoro-4-(1-methyl-1H-pyrazol-3-yl)benzyl)-N-((1S,2S)-2-hydroxycyclohexyl)-4-oxo-4,5-dihydrofuro[3,2-c]pyridine-7-carboxamide], the EC50 in experiment [1] was 6.05 µM; in experiment [2] it was greater than 10 µM. In addition, the maximal effect (Emax) was 82% in experiment [1] and less than 5% in experiment [2].
For `Cn1cnc2c(C(=O)N[C@H]3CCCC[C@@H]3O)cn(Cc3ccc(-n4cccn4)cc3)c(=O)c21` [Compound C6, 5-(4-(1H-pyrazol-1-yl)benzyl)-N-((1S,2S)-2-hydroxycyclohexyl)-3-methyl-4-oxo-4,5-dihydro-3H-imidazo[4,5-c]pyridine-7-carboxamide], in that order: 0.17 µM, greater than 10 µM, 43% and less than 5%.
The matching figures for `Cn1nccc1-c1cc(F)c(Cn2cc(C(=O)N[C@H]3CCCC[C@@H]3O)c3ncccc3c2=O)c(F)c1` [Compound A48, 6-(2,6-difluoro-4-(1-methyl-1H-pyrazol-5-yl)benzyl)-N-((1S,2S)-2-hydroxycyclohexyl)-5-oxo-5,6-dihydro-1,6-naphthyridine-8-carboxamide]: 0.66 µM, greater than 10 µM, 38% and less than 5%.
Regarding `Cn1cc(-c2ccc(Cn3cc(C(=O)N[C@H]4CCOC[C@@H]4O)c4ncccc4c3=O)c(F)c2)cn1` [Compound A6, 6-(2-fluoro-4-(1-methyl-1H-pyrazol-4-yl)benzyl)-N-((3R,4S)-3-hydroxytetrahydro-2H-pyran-4-yl)-5-oxo-5,6-dihydro-1,6-naphthyridine-8-carboxamide], in experiment [1], the EC50 came out at 0.22 µM and the maximal effect (Emax) is 89%. For the same compound, in experiment [2], the EC50 was 8.2 µM and the Emax is 23%.
The matching figures for `Cn1cc2c(-c3cc(F)c(Cn4cc(C(=O)N[C@H]5CCCCC[C@@H]5O)c5nccnc5c4=O)c(F)c3)cccc2n1` [Compound A67, 6-(2,6-difluoro-4-(2-methyl-2H-indazol-4-yl)benzyl)-N-((1S,2S)-2-hydroxycycloheptyl)-5-oxo-5,6-dihydropyrido[3,4-b]pyrazine-8-carboxamide]: 0.62 µM, 77%, 5 µM and 46%.
For `Cn1ccc(-c2ccc(Cn3cc(C(=O)N[C@H]4CCOC[C@@H]4O)c4nccn4c3=O)c(F)c2)n1` [Compound B1, 6-(2-fluoro-4-(1-methyl-1H-pyrazol-3-yl)benzyl)-N-((3R,4S)-3-hydroxytetrahydro-2H-pyran-4-yl)-5-oxo-5,6-dihydroimidazo[1,2-c]pyrimidine-8-carboxamide], in that order: 0.13 µM, 67%, 3 µM and 55%.
For the compound `Cc1cc(-c2ccc(Cn3cc(C(=O)N[C@H]4CCCC[C@@H]4O)c4ncccc4c3=O)c(F)c2)ccn1` [Compound A27, 6-(2-Fluoro-4-(2-methylpyridin-4-yl)benzyl)-N-((1S,2S)-2-hydroxycyclohexyl)-5-oxo-5,6-dihydro-1,6-naphthyridine-8-carboxamide], in experiment [1], the concentration for a half-maximal effect (EC50) amounted to 0.86 µM and the maximum response (Emax) was 74%. In addition, in experiment [2], the half-maximal effective concentration (EC50) is greater than 10 µM and the maximal effect (Emax) came to 6%.
